Here are results for 14 compounds from PubChem BioAssay AID330 (DTP/NCI, 2004).

Values joined by “and” are separate entries in the source; they are usually repeats but may differ in a detail not shown here. Equal values may be shown once. Toxic doses and inconclusive results are not listed.

The subject of the test is P388 leukemia ip, CD2F1 mice, survival T/C. Put plainly: NCI In Vivo Anticancer Drug Screen. Data for tumor model P388 Leukemia (intraperitoneal) in CD2F1 (CDF1) mice. The conditions noted are these: endpoint: median survival time, higher = longer survival. The procedure, abridged:
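Mice carrying the transplanted tumor received test compound or vehicle. Survival was recorded in each group, and the value is the treated-group measurement divided by that of the vehicle-treated control group.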

Regarding `O=CC(NC(=O)N(CCCl)N=O)C(O)C(O)C(O)CO` (stereo unspecified), the T/C (dose: 0.78 mg/kg/injection, schedule: Q01DX009 (ip), vehicle: saline) was 156 % of control; the T/C (dose: 1.5 mg/kg/injection, schedule: Q01DX005 (ip), vehicle: water) was 158 % of control; the T/C (dose: 1.5 mg/kg/injection, schedule: Q04DX003 (ip), vehicle: saline) is 153 % of control; the T/C (dose: 1.56 mg/kg/injection, schedule: Q01DX009 (ip), vehicle: saline) was 195 % of control; the T/C (dose: 3.0 mg/kg/injection, schedule: Q01DX005 (ip), vehicle: saline) was 169 % of control; the T/C (dose: 3.0 mg/kg/injection, schedule: Q01DX005 (ip), vehicle: water) was 163 % of control and 187 % of control. The T/C reads like this: (dose: 3.0 mg/kg/injection, schedule: Q04DX003 (ip), vehicle: saline) 174 % of control; (dose: 3.12 mg/kg/injection, schedule: Q01DX009 (ip), vehicle: saline) 263 % of control; (dose: 4.32 mg/kg/injection, schedule: Q04DX002 (ip), vehicle: saline) 166 % of control; (dose: 6.0 mg/kg/injection, schedule: Q01DX001 (ip), vehicle: saline) 157 % of control; (dose: 6.0 mg/kg/injection, schedule: Q01DX001 (iv), vehicle: saline) 109 % of control; (dose: 6.0 mg/kg/injection, schedule: Q01DX005 (ip), vehicle: saline) 205 % of control. Also, the T/C is 199 % of control and 264 % of control (dose: 6.0 mg/kg/injection, schedule: Q01DX005 (ip), vehicle: water); 192 % of control (dose: 6.0 mg/kg/injection, schedule: Q01DX005 (iv), vehicle: saline); 205 % of control (dose: 6.0 mg/kg/injection, schedule: Q04DX003 (ip), vehicle: saline); 169 % of control (dose: 7.2 mg/kg/injection, schedule: Q04DX002 (ip), vehicle: saline); 212 % of control (dose: 12.0 mg/kg/injection, schedule: Q01DX001 (ip), vehicle: saline); 258 % of control (dose: 12.0 mg/kg/injection, schedule: Q01DX005 (ip), vehicle: saline). In addition, the T/C reads like this: (dose: 12.0 mg/kg/injection, schedule: Q01DX005 (ip), vehicle: water) 265 % of control and 91 % of control; (dose: 12.0 mg/kg/injection, schedule: Q01DX005 (iv), vehicle: saline) 119 % of control; (dose: 12.0 mg/kg/injection, schedule: Q04DX002 (ip), vehicle: saline) 212 % of control; (dose: 12.0 mg/kg/injection, schedule: Q04DX003 (ip), vehicle: saline) 285 % of control and 371 % of control and 401 % of control; (dose: 18.0 mg/kg/injection, schedule: Q04DX003 (ip), vehicle: saline) 153 % of control and 175 % of control; (dose: 20.0 mg/kg/injection, schedule: Q04DX002 (ip), vehicle: saline) 287 % of control. The T/C was 277 % of control (dose: 24.0 mg/kg/injection, schedule: Q01DX001 (ip), vehicle: saline); 166 % of control (dose: 24.0 mg/kg/injection, schedule: Q01DX001 (iv), vehicle: saline); 96 % of control (dose: 27.0 mg/kg/injection, schedule: Q04DX003 (ip), vehicle: saline); 74 % of control and 98 % of control (dose: 40.0 mg/kg/injection, schedule: Q04DX003 (ip), vehicle: saline).

As for `CC(C)(C)c1cc(C(=O)O)c(SSc2ccccc2)c(C(=O)O)c1`, where the note is “dose: 100.0 mg/kg/injection, schedule: Q04DX002 (ip), vehicle: Klucel (hydroxypropylcellulose) (HPC)”, the T/C is 105 % of control.

For `CCNC(=O)OCc1cnc(C)c(O)c1COC(=O)NCC`, the T/C was 102 % of control (dose: 25.0 mg/kg/injection, schedule: Q01DX005 (ip), vehicle: saline with Tween-80); 100 % of control (dose: 50.0 mg/kg/injection, schedule: Q01DX005 (ip), vehicle: saline with Tween-80); 99 % of control (dose: 100.0 mg/kg/injection, schedule: Q01DX005 (ip), vehicle: saline with Tween-80).

`c1cc(C2CO2)ccc1Oc1ccc(C2CO2)cc1` (stereo unspecified): the T/C runs as follows: (dose: 50.0 mg/kg/injection, schedule: Q01DX009 (ip), vehicle: Klucel (hydroxypropylcellulose) (HPC)) 103 % of control; (dose: 100.0 mg/kg/injection, schedule: Q01DX009 (ip), vehicle: Klucel (hydroxypropylcellulose) (HPC)) 88 % of control; (dose: 200.0 mg/kg/injection, schedule: Q01DX009 (ip), vehicle: Klucel (hydroxypropylcellulose) (HPC)) 93 % of control.

Consider `CN1N=Nc2ccccc2C1O` (stereo unspecified), for which the T/C (dose: 25.0 mg/kg/injection, schedule: Q01DX005 (ip), vehicle: Klucel (hydroxypropylcellulose) (HPC)) was 92 % of control; the T/C (dose: 50.0 mg/kg/injection, schedule: Q01DX005 (ip), vehicle: Klucel (hydroxypropylcellulose) (HPC)) is 95 % of control; the T/C (dose: 100.0 mg/kg/injection, schedule: Q01DX005 (ip), vehicle: Klucel (hydroxypropylcellulose) (HPC)) is 116 % of control.

Consider `O=CN1CCCc2cc(C(=O)O)ccc21`, for which the T/C is, setting by setting: (dose: 50.0 mg/kg/injection, schedule: Q01DX001 (ip), vehicle: saline sonified) 100 % of control; (dose: 100.0 mg/kg/injection, schedule: Q01DX001 (ip), vehicle: saline sonified) 100 % of control; (dose: 200.0 mg/kg/injection, schedule: Q01DX001 (ip), vehicle: saline sonified) 105 % of control.

Turning to `COc1cccc2c1C(=O)c1c(O)c3c(c(O)c1C2=O)CC(O)(/C(C)=N/NC(=O)c1cc(C(F)(F)F)cc(C(F)(F)F)c1)CC3OC1CC(N)C(O)C(C)O1` (stereo unspecified), the T/C (dose: 0.78 mg/kg/injection, schedule: Q01DX009 (ip), vehicle: water) is 151 % of control; the T/C (dose: 1.56 mg/kg/injection, schedule: Q01DX009 (ip), vehicle: water) is 174 % of control; the T/C (dose: 3.13 mg/kg/injection, schedule: Q01DX009 (ip), vehicle: water) was 160 % of control and 185 % of control; the T/C (dose: 6.25 mg/kg/injection, schedule: Q01DX009 (ip), vehicle: water) is 93 % of control and 95 % of control.

As to `O=c1ccc2nc3ccccc3sc-2c1`, the T/C by setting is: (dose: 12.5 mg/kg/injection, schedule: Q01DX009 (ip), vehicle: saline with Tween-80) 90 % of control; (dose: 25.0 mg/kg/injection, schedule: Q01DX009 (ip), vehicle: saline with Tween-80) 104 % of control; (dose: 50.0 mg/kg/injection, schedule: Q01DX009 (ip), vehicle: saline with Tween-80) 109 % of control.

Turning to `COc1cc([C@H]2c3cc4c(cc3C[C@H]3COC(=O)[C@@H]32)OCO4)cc(OC)c1OC`, the T/C reads like this: (dose: 12.5 mg/kg/injection, schedule: Q04DX002 (ip), vehicle: saline with Tween-80) 92 % of control; (dose: 25.0 mg/kg/injection, schedule: Q04DX002 (ip), vehicle: saline with Tween-80) 86 % of control; (dose: 50.0 mg/kg/injection, schedule: Q04DX002 (ip), vehicle: saline with Tween-80) 89 % of control.

As to `COC(=O)C1(C2CCc3cc(OC)ccc3C2=O)NC(=S)NC(=O)C1C#N` (stereo unspecified), the T/C by setting is: (dose: 7.5 mg/kg/injection, schedule: Q01DX005 (ip), vehicle: saline with Tween-80) 96 % of control; (dose: 15.0 mg/kg/injection, schedule: Q01DX005 (ip), vehicle: saline with Tween-80) 97 % of control; (dose: 30.0 mg/kg/injection, schedule: Q01DX005 (ip), vehicle: saline with Tween-80) 93 % of control.

Take `CCOC(=O)C=C1CCC2(CC1)SCCS2`: the T/C is, setting by setting: (dose: 100.0 mg/kg/injection, schedule: Q01DX001 (ip), vehicle: other) 104 % of control; (dose: 200.0 mg/kg/injection, schedule: Q01DX001 (ip), vehicle: other) 114 % of control; (dose: 400.0 mg/kg/injection, schedule: Q01DX001 (ip), vehicle: other) 117 % of control.

For the compound `CC(=O)Nc1cccc(/C=C/C=C/c2ccc([N+](=O)[O-])cc2)c1`, the T/C runs as follows: (dose: 37.5 mg/kg/injection, schedule: Q01DX001 (ip), vehicle: saline with Tween-80) 100 % of control; (dose: 75.0 mg/kg/injection, schedule: Q01DX001 (ip), vehicle: saline with Tween-80) 95 % of control; (dose: 150.0 mg/kg/injection, schedule: Q01DX001 (ip), vehicle: saline with Tween-80) 90 % of control.

Take `Nc1nc(Cc2ccccc2)c(-c2ccccc2)c(-c2nc(N)nc(Cc3ccccc3)c2-c2ccccc2)n1`: the T/C was 100 % of control (dose: 60.0 mg/kg/injection, schedule: Q01DX005 (ip), vehicle: saline with Tween-80); 105 % of control (dose: 120.0 mg/kg/injection, schedule: Q01DX005 (ip), vehicle: saline with Tween-80); 99 % of control (dose: 240.0 mg/kg/injection, schedule: Q01DX005 (ip), vehicle: saline with Tween-80).

As to `C=CCC(C(C)=O)C(=O)OC(C)(C)C` (stereo unspecified), the T/C is 101 % of control (dose: 50.0 mg/kg/injection, schedule: Q01DX005 (ip), vehicle: saline); 104 % of control (dose: 100.0 mg/kg/injection, schedule: Q01DX005 (ip), vehicle: saline); 111 % of control (dose: 200.0 mg/kg/injection, schedule: Q01DX005 (ip), vehicle: saline).
